Reference: ChEMBL document CHEMBL5137027, “Discovery of quinazoline derivatives CZw-124 as a pan-TRK inhibitor with potent anticancer effects in vitro and in vivo” (Eur J Med Chem, 2022)
pIC50: −log10 of the molar value. Values belong to the compound of their own block, whether it stands above or below them.

Experiments:
[1] = biological target: High affinity nerve growth factor receptor (Homo sapiens, UniProt P04629, G595R); assay: Inhibition of TRKA G595R mutant (unknown origin)
BaF3 [2] = assay: Antiproliferative activity against mouse BaF3 cells harboring TRKA G595R mutant assessed as inhibition of cell growth incubated for 72 hrs by CCK8 assay; type: functional, cell-based; settings: BaF3, 72 h
BaF3 [3] = assay: Antiproliferative activity against mouse BaF3 cells harboring TRKA G667C mutant assessed as inhibition of cell growth incubated for 72 hrs by CCK8 assay; type: functional, cell-based; settings: BaF3, 72 h
KM12 [4] = assay: Antiproliferative activity against human KM12 cells assessed as inhibition of cell growth incubated for 72 hrs by CCK8 assay; type: functional, cell-based; settings: KM12, 72 h
BaF3 [5] = assay: Antiproliferative activity against mouse BaF3 cells harboring TRKA F589L mutant assessed as inhibition of cell growth incubated for 72 hrs by CCK8 assay; type: functional, cell-based; settings: BaF3, 72 h
A549 = assay: Antiproliferative activity against human A549 cells assessed as inhibition of cell growth incubated for 72 hrs by CCK8 assay; type: functional, cell-based; settings: A549, 72 h
MCF7 = assay: Antiproliferative activity against human MCF7 cells assessed as inhibition of cell growth incubated for 72 hrs by CCK8 assay; type: functional, cell-based; settings: MCF7, 72 h
THLE-2 = assay: Antiproliferative activity against human THLE-2 cells assessed as inhibition of cell growth incubated for 72 hrs by CCK8 assay; type: functional, cell-based; settings: THLE-2, 72 h
[6] = Toxicity in nude BALB/c mouse xenografted with human KM12 cells assessed as changes in body weight at 40 mg/kg, po qd measured every 3 days for 14 days; type: organism-based; settings: in vivo, 336 h, time 14 day
KM12 [7] = assay: Antitumor activity against human KM12 cells xenografted in nude BALB/c mouse assessed as tumor growth inhibition at 40 mg/kg, po qd measured every 3 days for 14 days; type: functional; settings: KM12, 336 h, time 14 day, read-out: TGI
[8] = biological target: High affinity nerve growth factor receptor (Homo sapiens, UniProt P04629); assay: Inhibition of […] human TRKA (436 to 790 residues) expressed in baculovirus expression system using TK as substrate measured after 30 mins in presence of ATP by HTRF assay
[9] = Metabolic stability in human microsomes assessed as intrinsic clearance at 100 uM incubated for 60 mins under shaking condition in presence of NADPH by LC-MS/MS analysis; type: ADME, Microsome; settings: read-out: CLH
[10] = Metabolic stability in human liver microsomes assessed as compound remaining at 100 uM incubated for 60 mins under shaking condition in absence of NADPH by LC-MS/MS analysis; type: ADME, Microsome; settings: read-out: Stability
[11] = Metabolic stability in human liver microsomes assessed as compound remaining at 100 uM incubated for 60 mins under shaking condition in presence of NADPH by LC-MS/MS analysis; type: ADME, Microsome; settings: read-out: Stability
[12] = Metabolic stability in human liver microsomes assessed as half life at 100 uM incubated for 60 mins under shaking condition in presence of NADPH by LC-MS/MS analysis; type: ADME, Microsome

Sequence of High affinity nerve growth factor receptor (Homo sapiens, UniProt P04629) (P04629 whole entry, the tested form may be a part): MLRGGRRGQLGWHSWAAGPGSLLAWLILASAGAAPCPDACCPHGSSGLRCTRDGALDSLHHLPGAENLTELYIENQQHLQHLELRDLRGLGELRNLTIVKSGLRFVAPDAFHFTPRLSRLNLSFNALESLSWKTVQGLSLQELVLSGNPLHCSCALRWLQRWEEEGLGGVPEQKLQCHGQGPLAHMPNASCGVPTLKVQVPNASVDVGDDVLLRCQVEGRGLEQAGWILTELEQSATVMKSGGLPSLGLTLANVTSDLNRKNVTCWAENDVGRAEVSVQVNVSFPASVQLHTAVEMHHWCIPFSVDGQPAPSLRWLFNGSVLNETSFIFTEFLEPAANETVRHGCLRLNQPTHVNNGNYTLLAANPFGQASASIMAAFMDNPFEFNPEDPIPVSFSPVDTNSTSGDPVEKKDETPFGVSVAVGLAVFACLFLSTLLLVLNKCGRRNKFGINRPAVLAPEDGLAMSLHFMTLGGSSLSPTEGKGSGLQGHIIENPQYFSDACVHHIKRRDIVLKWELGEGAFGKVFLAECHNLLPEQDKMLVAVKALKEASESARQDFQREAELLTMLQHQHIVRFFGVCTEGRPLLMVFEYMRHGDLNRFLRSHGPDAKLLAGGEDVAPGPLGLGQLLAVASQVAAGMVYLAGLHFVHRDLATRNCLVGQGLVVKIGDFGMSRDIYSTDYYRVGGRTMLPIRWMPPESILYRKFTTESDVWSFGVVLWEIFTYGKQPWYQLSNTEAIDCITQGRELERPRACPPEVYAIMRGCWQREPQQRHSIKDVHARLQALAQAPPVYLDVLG
Sequence of High affinity nerve growth factor receptor (Homo sapiens, UniProt P04629, G595R) (P04629 33-796 G595R limits assumed): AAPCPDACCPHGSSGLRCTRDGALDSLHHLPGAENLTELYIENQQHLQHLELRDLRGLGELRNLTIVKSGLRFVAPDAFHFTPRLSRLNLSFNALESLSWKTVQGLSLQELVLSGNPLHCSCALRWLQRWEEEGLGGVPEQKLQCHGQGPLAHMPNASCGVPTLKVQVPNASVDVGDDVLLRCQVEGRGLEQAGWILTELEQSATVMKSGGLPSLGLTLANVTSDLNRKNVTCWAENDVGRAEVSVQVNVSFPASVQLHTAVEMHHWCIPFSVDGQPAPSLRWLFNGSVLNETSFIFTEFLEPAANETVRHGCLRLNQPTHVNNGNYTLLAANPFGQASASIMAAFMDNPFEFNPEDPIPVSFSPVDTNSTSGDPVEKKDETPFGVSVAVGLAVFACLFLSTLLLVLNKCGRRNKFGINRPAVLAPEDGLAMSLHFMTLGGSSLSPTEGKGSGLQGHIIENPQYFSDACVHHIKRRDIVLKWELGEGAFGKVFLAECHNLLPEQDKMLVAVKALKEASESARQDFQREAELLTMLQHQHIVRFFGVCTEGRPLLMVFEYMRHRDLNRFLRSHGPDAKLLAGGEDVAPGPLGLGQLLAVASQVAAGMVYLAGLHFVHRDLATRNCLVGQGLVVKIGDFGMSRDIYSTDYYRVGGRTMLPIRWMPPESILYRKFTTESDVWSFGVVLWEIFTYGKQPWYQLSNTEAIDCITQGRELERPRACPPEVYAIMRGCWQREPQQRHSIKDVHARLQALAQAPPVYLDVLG

pIC50 [1]: 5.52
SMILES: Cc1cc(C(=O)NC(C)(C)C)cc(C#Cc2ccc3c4c(oc3c2)C(C)(C)c2cc(NS(C)(=O)=O)ccc2C4=O)n1

pIC50 (BaF3 [2]): 7.23
pIC50 (BaF3 [3]): 6.89
pIC50 (BaF3 [5]): 7.70
SMILES: CC(C)Oc1cc(Nc2nc(N[C@@H](C)c3ccc(F)cn3)ncc2Cl)n[nH]1
pIC50 (KM12 [4]): 7.68

pIC50 (A549): < 4.00
pIC50 (MCF7): < 4.00
pIC50 (BaF3 [2]): 5.66
pIC50 (BaF3 [3]): 6.07
pIC50 (BaF3 [5]): 6.59
SMILES: O=C(Nc1cnn2ccc(N3CCC[C@H]3c3cc(F)ccc3F)nc12)N1CC[C@@H](O)C1
pIC50 (THLE-2): < 4.00
Activity [6]: Non-Toxic
pIC50 (KM12 [4]): 8.15
inhibition in vivo at 40 mg/kg (KM12 [7]): 78%

pIC50 [8]: 6.82
SMILES: Fc1ccc(CNc2nc(Nc3cc(C4CC4)[nH]n3)c3ccc(Br)cc3n2)c(F)c1

pIC50 [8]: 7.17
SMILES: Fc1ccc(CNc2nc(Nc3cc(-c4ccccc4)[nH]n3)c3ccccc3n2)c(F)c1

pIC50 [8]: 6.80
SMILES: Cc1cc(Nc2nc(NCc3c(F)cccc3F)nc3ccccc23)n[nH]1

pIC50 [8]: 6.74
SMILES: Cc1cc(Nc2nc(NCc3ccc(Br)cc3)nc3ccccc23)n[nH]1

pIC50 [8]: 8.12
SMILES: Cc1cc(Nc2nc(NCc3cc(F)ccc3F)nc3ccccc23)n[nH]1

microsomal CLint at 100 µM [9]: 53.7 µL/min/mg
pIC50 [8]: 8.33
remaining at 1 h, 100 µM [10]: 104%
remaining at 1 h, 100 µM [11]: 19.3%
half-life at 100 µM [12]: 25.8 min
SMILES: Fc1ccc(CNc2nc(Nc3cc(C4CC4)[nH]n3)c3ccccc3n2)c(F)c1

pIC50 [8]: 6.42
SMILES: Cc1cc(Nc2nc(NCc3ccc(Cl)cc3)nc3ccccc23)n[nH]1

microsomal CLint at 100 µM [9]: 43.5 µL/min/mg
remaining at 1 h, 100 µM [10]: 99.5%
remaining at 1 h, 100 µM [11]: 28.1%
half-life at 100 µM [12]: 31.9 min
SMILES: Cc1cc(Nc2nc(NCc3ccc(F)cc3F)nc3cc(Cl)ccc23)n[nH]1

pIC50 [8]: 6.46
SMILES: Cc1cc(Nc2nc(N3CCOCC3)nc3ccc(Cl)cc23)n[nH]1

microsomal CLint at 100 µM [9]: 54.3 µL/min/mg
remaining at 1 h, 100 µM [10]: 98.1%
remaining at 1 h, 100 µM [11]: 20.2%
half-life at 100 µM [12]: 25.5 min
SMILES: Cc1ccc2c(Nc3cc(C)[nH]n3)nc(NCc3ccc(F)cc3F)nc2c1

pIC50 [8]: 7.70
SMILES: Cc1cc(Nc2nc(NCc3ccc(F)cc3)nc3ccccc23)n[nH]1

pIC50 [8]: 7.36
SMILES: Cc1cc(Nc2nc(NCc3ccc(F)cc3F)nc3ccc(F)cc23)n[nH]1

pIC50 [8]: 6.96
SMILES: Cc1ccc(CNc2nc(Nc3cc(C)[nH]n3)c3ccccc3n2)cc1

pIC50 (A549): 4.72
pIC50 (MCF7): 5.04
pIC50 [8]: 7.77
pIC50 (BaF3 [2]): 5.96
SMILES: Fc1ccc(CNc2nc(Nc3cc(C4CC4)[nH]n3)c3ccc(C(F)(F)F)cc3n2)c(F)c1
pIC50 (THLE-2): < 4.00
pIC50 (KM12 [4]): 7.55

microsomal CLint at 100 µM [9]: 27.2 µL/min/mg
pIC50 [8]: 7.24
remaining at 1 h, 100 µM [10]: 98.3%
remaining at 1 h, 100 µM [11]: 43.4%
half-life at 100 µM [12]: 50.9 min
SMILES: Cc1cc(Nc2nc(NCc3ccc(F)cc3F)nc3cc(C(F)(F)F)ccc23)n[nH]1

pIC50 [8]: 5.85
SMILES: Cc1cc(Nc2nc(NCc3ccc(C(F)(F)F)cc3)nc3ccccc23)n[nH]1

pIC50 (BaF3 [2]): 7.74
pIC50 (BaF3 [5]): 8.09
SMILES: C[C@@H]1CCc2ncc(F)cc2[C@H]2CCCN2c2ccn3ncc(c3n2)C(=O)N1 [SELITRECTINIB]
pIC50 (KM12 [4]): 8.55
